Measured values: publication PMC6337512 (Molecules, 2018)
≈ marks a conversion by molar mass, not a printed value.

Key:
[1] = solutions in culture media RPMI
[2] = Solubility of APIs and THEDES in PBS, excess added, 24 h stirring, UV spectroscopy; assay type: physicochemical; conditions: aqueous buffer, thermodynamic from solid; PBS (pH 7.4), 37 °C
Protocol: The solubility studies were made with the pure APIs and THEDES. For performing these assays were used a PBS solution, and was added an excess of API and THEDES to this solution, place at 37 °C, under stirring for 24 h, for simulate physiological conditions. The determination of the API solubility was made by UV spectroscopy in 1 mL quartz cuvettes, using a Lambda 35 UV/VIS spectrometer (PerkinElmer, Villepinte, France) and the PerkinElmer UV WinLab software (PerkinElmer, Villepinte, France). […] The calibration curve was made using the respective APIs as standard for quantification.

[3] = Permeability and diffusion in Franz diffusion cells through PES-U membrane

| Structure (SMILES) | pH [1] | solubility at 24 h [2] [µg/mL] | Papp at 180 min [3] [×10⁻⁶ cm/s] |
| --- | --- | --- | --- |
| N=C(N)NCCC[C@H](N)C(=O)O [L-Arginine, L-arginine] | 10.43 | – | – |
| CC[C@@H](CO)NCCN[C@@H](CC)CO [Ethambutol, ethambutol] | 6.21 | 4640 ± 70 (≈ 22.7 mM) | 819 ± 30.6 |
